Reference: PubChem BioAssay AID2060902 (Molecular Pharmacology Branch, DTP, NCI, 2025)

Test system: 485368-065-R3-J5-PDC spheroids with HUVEC/MSC, viability
Assay: Anticancer human tumor 485368-065-R3-J5-PDC patient-derived pancreatic carcinoma cell line growth inhibition [RAS]
Details: for viability, T/C: stronger effect = lower value; active = viability on the fitted dose curve at most 10% of control; inactive = the rest
From the text: RAS pathway inhibitors in Combinations in Complex Spheroids
A high-throughput screen of multi-cell type tumor spheroids was designed to identify active combinations of RAS pathway inhibitors and targeted small molecules. Complex spheroids include a stromal component modeled by human endothelial cells (HUVEC) and fibroblasts modeled by human mesenchymal stem cells (MSCs). The concentration ranges selected for each drug and investigational agent were based upon clinically achievable concentrations if the clinical Cmax of the agent was known.
Compounds. The drugs and investigational agents: abemaciclib (NSC768073), cobimetinib (NSC768068), divarasib (GDC6063, NSC841802), docetaxel (NSC628503), GDC-1971 (RLY-1971, NSC841576), gemcitabine (NSC613327), inavolisib (NSC800729), ipatasertib (NSC767898), KB-0742 (NSC834161), MRTX-1133 (NSC836407), osimertinib (NSC779217), RMC-4630 (NSC839698), RMC-6236 (NSC851965), RMC-6291 (NSC852671), Ro-3306 (NSC812927), sapanisertib (NSC764658), SN-38 (NSC673596), staurosporine (NSC755774), SY5609 (NSC837396), and tovorafenib (DAY101, NSC766906), were obtained from the National Cancer Institute (NCI) Developmental Therapeutics Program Chemical Repository. The FDA-approved anticancer drug set is available from the NCI Developmental Therapeutics Program. […] The stock solutions were prepared in dimethyl sulfoxide (DMSO, Sigma-Aldrich, St. Louis, MO, cat. D2650) at 800-fold the tested concentration and stored at -70 degrees C prior to their use. All drugs and investigational agents were tested over a range starting from a high concentration at or near the clinical Cmax and decreasing in half-log increments. If the clinical Cmax for an agent had not been determined, the highest concentration tested was 10 microM.
Cell Culture. All cells were maintained in an incubator at 37 degrees C and 5% CO2 with 95% humidity. The PDC lines were cultured according to standard operating procedures established by the NCI PDMR. All PDCs were thawed and cultured in Matrigel-coated flasks prepared with a working solution of 1X Ham's F-12 nutrient mix, without supplementation (Invitrogen, Waltham, MA, cat. 11765054), 100 U/mL penicillin-streptomycin (Invitrogen, cat. 15140122), and 2.5% Matrigel (Corning Inc., Corning, NY, cat. 354248) for the first three passages. The 362531-283-R-J2-PDC and 782815-120-R-J1-PDC lines were cultured in 6C/Colon 1B media, which includes advanced DMEM/F-12 (Thermo Fisher Scientific, cat. 12634028), 10 mM HEPES (Thermo Fisher Scientific, cat. 15630080), 1X GlutaMAX supplement (Thermo Fisher Scientific, cat. 35050061), 0.1 mg/mL primocin (InvivoGen, San Diego, CA, cat. ant-pm-2), 10% defined fetal bovine serum, heat inactivated (HyClone Laboratories Inc., Logan, UT, cat. SH30070.03HI), 50% L-WRN conditioned media (ATCC, cat. CRL-3276), 1.25 mM N-Acetyl-L-cysteine (Sigma-Aldrich, cat. A9165), 10 mM nicotinamide (Sigma-Aldrich, cat. N0636), 1X B-27 supplement (Thermo Fisher Scientific, cat. 17504044), 1X N-2 supplement (Thermo Fisher Scientific, cat. 17502048), 50 ng/mL human EGF (Thermo Fisher Scientific, cat. PHG0311), and 10 microM Y-27632 dihydrochloride (Tocris Bioscience, cat. 1254). The K12877-001-R-J1-PDC line was cultured in 6I media, which includes all 6C/Colon 1B media plus 10 ng/mL human FGF-10 (PeproTech, cat. 100-26), 1 ng/mL human FGF-2 (PeproTech, cat. 100-18B), 1 µM prostaglandin E2 (Tocris Bioscience, cat. 2296), […] hydrocortisone (Sigma-Aldrich, cat. H4001), and […] bovine insulin (Sigma-Aldrich, cat. I6634). The K86415-001-R-J1-PDC line was cultured in 6D media, which includes all 6C/Colon 1B media components minus the L-WRN conditioned media. The 485176-168-R4-J1-PDC was cultured in PANC media, which includes all 6C/Colon 1B media plus 100 ng/mL human FGF-10 (PeproTech, cat. 100-26), 500 nM SB-431542 (Selleckchem, cat. S1067), and 10 nM gastrin (Tocris Bioscience, cat. 3006). […]
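Note: spheroids exposed to agents for seven days before readout.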

C=CC(=O)N1CCN(c2nc(OCC3CCCN3C)nc3c(F)c(-c4nc(N)cc(C)c4C(F)(F)F)c(Cl)cc23)C(C)C1 (centres undefined) + CCn1c(-c2cc(N3CCN(C)CC3)cnc2C(C)OC)c2c3cc(ccc31)-c1csc(n1)CC(NC(=O)C1CC1C)C(=O)N1CCCC(N1)C(=O)OCC(C)(C)C2
active: viability, T/C (second compound 0.3 µM, first compound 0.01 µM) 9.38% | viability, T/C (second compound 0.3 µM, first compound 0.0316 µM) 9% | viability, T/C (second compound 0.3 µM, first compound 0.1 µM) 8.35% | viability, T/C (second compound 0.3 µM, first compound 0.316 µM) 10.7% | viability, T/C (second compound 0.3 µM, first compound 1 µM) 11%
< 3.16 nM: IC50 (curve of first compound, second compound 0.000949 µM) | IC50 (curve of first compound, second compound 0.003 µM) | IC50 (curve of first compound, second compound 0.00949 µM) | IC50 (curve of first compound, second compound 0.03 µM) | IC50 (curve of first compound, second compound 0.0949 µM) | IC50 (curve of first compound, second compound 0.3 µM)
inactive: viability, T/C (second compound 0.000949 µM, first compound 0.00316 µM) 32.9% | viability, T/C (second compound 0.000949 µM, first compound 0.01 µM) 35.6% | viability, T/C (second compound 0.000949 µM, first compound 0.0316 µM) 36.7% | viability, T/C (second compound 0.000949 µM, first compound 0.1 µM) 29.5% | viability, T/C (second compound 0.000949 µM, first compound 0.316 µM) 30.1% | viability, T/C (second compound 0.000949 µM, first compound 1 µM) 38.9% | viability, T/C (second compound 0.003 µM, first compound 0.00316 µM) 23.4% | viability, T/C (second compound 0.003 µM, first compound 0.01 µM) 21.4% | viability, T/C (second compound 0.003 µM, first compound 0.0316 µM) 21.2% | viability, T/C (second compound 0.003 µM, first compound 0.1 µM) 20.9% | viability, T/C (second compound 0.003 µM, first compound 0.316 µM) 20.9% | viability, T/C (second compound 0.003 µM, first compound 1 µM) 19.6% | viability, T/C (second compound 0.00949 µM, first compound 0.00316 µM) 17.3% | viability, T/C (second compound 0.00949 µM, first compound 0.01 µM) 18.3% | viability, T/C (second compound 0.00949 µM, first compound 0.0316 µM) 15.8% | viability, T/C (second compound 0.00949 µM, first compound 0.1 µM) 15.6% | viability, T/C (second compound 0.00949 µM, first compound 0.316 µM) 18% | viability, T/C (second compound 0.00949 µM, first compound 1 µM) 15.2% | viability, T/C (second compound 0.03 µM, first compound 0.00316 µM) 12.1% | viability, T/C (second compound 0.03 µM, first compound 0.01 µM) 11.4% | viability, T/C (second compound 0.03 µM, first compound 0.0316 µM) 12.5% | viability, T/C (second compound 0.03 µM, first compound 0.1 µM) 12.9% | viability, T/C (second compound 0.03 µM, first compound 0.316 µM) 12.8% | viability, T/C (second compound 0.03 µM, first compound 1 µM) 15.7% | viability, T/C (second compound 0.0949 µM, first compound 0.00316 µM) 10% | viability, T/C (second compound 0.0949 µM, first compound 0.01 µM) 12.6% | viability, T/C (second compound 0.0949 µM, first compound 0.0316 µM) 11.2% | viability, T/C (second compound 0.0949 µM, first compound 0.1 µM) 9.36% | viability, T/C (second compound 0.0949 µM, first compound 0.316 µM) 9.84% | viability, T/C (second compound 0.0949 µM, first compound 1 µM) 12.7% | viability, T/C (second compound 0.3 µM, first compound 0.00316 µM) 10.8%

CC(=O)OC12COC1CC(O)C1(C)C(=O)C(O)C3=C(C)C(OC(=O)C(O)C(NC(=O)OC(C)(C)C)c4ccccc4)CC(O)(C(OC(=O)c4ccccc4)C21)C3(C)C (centres undefined)
inactive: viability, T/C (compound 0.0316 µM) 16.4% [middle of 4 runs] | viability, T/C (compound 0.1 µM) 15.4% [middle of 4 runs] | viability, T/C (compound 0.316 µM) 14% [middle of 4 runs] | viability, T/C (compound 1 µM) 16.1% [middle of 4 runs] | viability, T/C (compound 3.16 µM) 19.1% [middle of 4 runs] | viability, T/C (compound 10 µM) 29.6% [middle of 4 runs]
< 31.6 nM: IC50 (curve of compound)
